Source: PubChem BioAssay (NCI)
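Interpolation was linear, between the two tested concentrations surrounding the appropriate level; five concentrations were tested over 48 hours in 96-well plates. TGI marks complete inhibition of growth.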

Experiments:
Assay in all cases: NCI anticancer screen, dose series, 48 h
NCI-H226 lung = tested on: NCI-H226 lung
EKVX NSCLC = tested on: EKVX NSCLC
NCI/ADR-RES ovarian = tested on: NCI/ADR-RES ovarian
SF-295 CNS = tested on: SF-295 CNS
MDA-MB-435 = tested on: MDA-MB-435
SK-MEL-5 melanoma = tested on: SK-MEL-5 melanoma
HS 578T breast = tested on: HS 578T breast
IGROV1 ovarian = tested on: IGROV1 ovarian
786-0 renal = tested on: 786-0 renal
OVCAR-8 ovarian = tested on: OVCAR-8 ovarian
RXF 393 renal = tested on: RXF 393 renal

Structure (SMILES) | TGI (NCI-H226 lung) [µM] | TGI (EKVX NSCLC) [µM] | TGI (NCI/ADR-RES ovarian) [µM] | TGI (SF-295 CNS) [µM] | TGI (MDA-MB-435) [µM] | TGI (SK-MEL-5 melanoma) [µM] | TGI (HS 578T breast) [µM] | TGI (IGROV1 ovarian) [µM] | TGI (786-0 renal) [µM] | TGI (OVCAR-8 ovarian) [µM] | TGI (RXF 393 renal) [µM]
CC(C)=C=CP(=O)(O)c1ccccc1 | > 100 | > 100 | > 100 | > 100 | > 100 | > 100 | > 100 | > 100 | > 100 | > 100 | 
COc1ccc(/C=C(/c2ccc(OC)cc2)c2c(Cl)cc(Cl)c(/C(=C\c3ccc(OC)cc3)c3ccc(OC)cc3)c2N=Nc2ccccc2)cc1 |  | > 100 | > 100 | > 100 | > 100 | > 100 | > 100 | > 100 | > 100 | > 100 | > 100
COc1cc2nc(-c3cccs3)nc(N3C(c4cc(OC)c(OC)c(OC)c4)=NNC(=O)c4ccccc43)c2cc1OC | > 100 | 73.5 | 9.25 | 42.6 | 32.1 | > 100 | > 100 | > 100 | > 100 | > 100 | 
N#Cc1c(N2CCCC2)nsc1Nc1ccccc1 | > 100 | > 100 | > 100 | > 100 |  | > 100 | > 100 | > 100 | > 100 | > 100 | > 100
Clc1ncnc2c1nc(C#Cc1ccccc1)n2C1CCCCO1 (centres undefined) | 6.47 | 3.67 | 7.01 | 16.5 | 5.84 | 5.06 | 42.6 |  | 3.64 | 12.4 | 
COc1cc(-c2nc(SC)nc3c2CCc2ccccc2-3)cc(OC)c1OC |  | 92.8 | > 100 | > 100 | > 100 | > 100 | > 100 | > 100 | > 100 | > 100 | > 100
COc1ccc(/C=C2\OC(=O)C(Cl)=C2c2ccc(OC)c(Cl)c2)cc1 |  | 51.8 | 52.6 | 67.6 | 59.9 | 48.6 | 73.7 | > 100 | 35.5 | 60.8 | 29.5
c1ccc(OCc2nnc(CCCCCCCCc3nnc(COc4ccccc4)o3)o2)cc1 | > 100 | > 100 | > 100 | > 100 | > 100 | > 100 |  | > 100 | > 100 | > 100 | 30.8
Cc1ccc(S(=O)(=O)N/N=C\c2c3ccccc3[n+](C)c3ccccc23)cc1 | 60.1 | > 100 |  | 30.3 |  | 98.5 |  | > 100 | > 100 | > 100 | 43.6
O=S(=O)(O)c1cc(N=[N+]([O-])c2ccc(N=Nc3ccccc3)cc2S(=O)(=O)O)ccc1/C=C/c1ccc(N=[N+]([O-])c2ccc(N=Nc3ccccc3)cc2S(=O)(=O)O)cc1S(=O)(=O)O | > 100 | > 100 | > 100 | > 100 |  | > 100 |  | > 100 |  | > 100 | > 100
O=C(Cn1c(=O)oc2ccc(C(=O)c3cccc(Cl)c3)cc21)c1ccccc1 | > 100 | > 100 | > 100 | > 100 | > 100 | > 100 | > 100 | > 100 |  | > 100 | 
